Structures are written as SMILES. Structures can show the parent of a compound that is named as a salt.

The target in one data set is T1, human RORγt (Homo sapiens, UniProt P51449).
T1 construct: the full-length cDNA of human RORγt; expressed in transfected cells; host or cells: COS-7 (monkey kidney)
T1 sequence (P51449 1-497 isoform P51449-2): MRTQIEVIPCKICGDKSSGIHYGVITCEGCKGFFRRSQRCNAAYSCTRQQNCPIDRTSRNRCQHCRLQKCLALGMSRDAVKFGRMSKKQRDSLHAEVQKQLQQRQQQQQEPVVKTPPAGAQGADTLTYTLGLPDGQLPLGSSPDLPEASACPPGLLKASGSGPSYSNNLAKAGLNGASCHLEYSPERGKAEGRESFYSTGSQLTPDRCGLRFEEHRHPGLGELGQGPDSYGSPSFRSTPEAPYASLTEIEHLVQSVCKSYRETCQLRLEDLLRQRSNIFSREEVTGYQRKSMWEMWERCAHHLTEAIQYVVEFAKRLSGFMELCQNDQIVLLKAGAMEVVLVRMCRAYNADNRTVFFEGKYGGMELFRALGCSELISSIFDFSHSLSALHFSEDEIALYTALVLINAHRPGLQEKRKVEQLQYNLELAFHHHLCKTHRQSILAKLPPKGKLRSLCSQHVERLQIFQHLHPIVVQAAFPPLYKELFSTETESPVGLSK
The data set can be described thus: RORE Luciferase/RORγt transactivation assay. It is filed as cell-based. Conditions: COS-7 cells transfected with human IL-17 promoter luciferase reporter and RORγt plasmid; 20 h with compound; read-out: IC50, RORγt activity inhibition. The method in brief: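 Transactivation read-out: luminescence (Steady-Glo, 30 min at room temperature) from COS-7 cells carrying a RORγt expression plasmid plus a 4.3 kb IL-17 promoter luciferase reporter. Compound exposure was in serum-free DMEM with 0.3% DMSO final. Reported values are IC50 (μM) and Emax (%).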
A general note: Reporter assays use an easily measured gene product as a stand-in for the process of interest.

Data set [1] has as its system Murine EL-4 lymphoma cell line overexpressing human RORγt. The data set is described as follows: IL-17 secretion from EL4 murine lymphoma. It is filed as cell-based. As to conditions: Mus musculus; human RORγt-transfected EL4 cells, PMA (10 ng/mL) and ionomycin (1 μM), 24 h; read-out: IC50, IL-17 secretion inhibition. Here is the method:
Murine EL-4 lymphoma cell line overexpressing human RORγt was used in this functional assay to assess compound ability to inhibit IL-17 cytokine secretion.
EL-4 cells are maintained in a standard culture medium RPMI supplemented with 10% fetal calf serum, 1% sodium pyruvate, 1% essential amino acids and 1% antibiotics at 37° C. in a humidified atmosphere of 5% CO02 and 95% air. Culture medium was changed every 2 days. EL4 cells were transfected with a plasmid encoding hRORγt (sequence identical to published sequence NM 001001523). […] Briefly, 1 μg of DNA/1 million cells was served to transfect EL-4 cells. Cell/DNA suspension was transferred into certified cuvette and the electroporation of RORγt plasmid was carried out using appropriate Nucleofector® program.
Cells were seeded in 96 well plates at a density of 150000 cells/I well then treated with compounds of this invention at indicated concentrations and incubated for 24 hours at 37° C. in a humidified atmosphere of 5% C02 and 95% air. EL-4 cells were pretreated with test compounds (RORγ modulators) and stimulated with PMA (10 ng/mL) and ionomycin (1 μM final concentration) in the presence of test compound concentrations for additional 24 h at 37° C. in a humidified atmosphere of 5% C02 and 95% air. Subsequently, supernatants were collected (after centrifugation at 300 g for 10 minutes) to determine the concentrations of IL-17 by HTRF (CisBio, France) or ELISA (R&D Systems Europe) according to the manufacturer's protocols.

Broadly, the melting point is the temperature of the solid-liquid transition. For the compound `Cc1ccc(C(NC(=O)C2(c3ccc4c(c3)OCS(=O)(=O)N4C)CC2)c2ccc(C)o2)c(C)c1` (centres unmarked) (as salt: HCl) [Cpd. 172, N-[(2,4-dimethylphenyl)(5-methylfuran-2-yl)methyl]-1-(1-methyl-2,2-dioxo-1,3-dihydro-4,2,1-benzoxathiazin-6-yl)cyclopropane-1-carboxamide], the melting point stood at 65 °C.
The same measure, in the same setting: the figure for `Cc1ccc(C(NC(=O)C2(c3ccc4c(c3)OCS(=O)(=O)N4C)CC2)c2ccc(C)o2)c(Br)c1` (centres unmarked) (as salt: HCl) [Cpd. 173, N-[(2-bromo-4-methylphenyl)(5-methylfuran-2-yl)methyl]-1-(1-methyl-2,2-dioxo-1,3-dihydro-4,2,1-benzoxathiazin-6-yl)cyclopropane-1-carboxamide] is 71 °C.
For `Cc1ccc(C(NC(=O)Cc2ccc3c(ccn3S(C)(=O)=O)c2)c2ccc(C)o2)c(N2CCCCC2)c1` (centres unmarked) (as salt: ammonium) [Cpd. 106, 2-(1-methanesulfonyl-1H-indol-5-yl)-N-{[4-methyl-2-(piperidin-1-yl)phenyl](5-methylfuran-2-yl)methyl}acetamide], the melting point was found to be 83 °C.
Same read-out and setting: the figure for `CCSc1nc2cc(CC(=O)NC(c3ccccc3)c3ccc(C)cc3Br)ccc2[nH]1` (centres unmarked) (as salt: hydrochloride) [Cpd. 92, N-[(2-bromo-4-methylphenyl)(phenyl)methyl]-2-[2-(ethylsulfanyl)-1H-1,3-benzodiazol-5-yl]acetamide] is 103 °C; for `Cc1ccc(C(NC(=O)Cc2ccc3c(c2)C(=O)C(=O)N3C)c2ccc(C)o2)c(N2CCCCC2)c1` (centres unmarked) (as salt: sodium) [Cpd. 45, 2-(1-methyl-2,3-dioxo-2,3-dihydro-1H-indol-5-yl)-N-{[4-methyl-2-(piperidin-1-yl)phenyl](5-methylfuran-2-yl)methyl}acetamide] it is 99 °C.
The compound `Cc1ccc(C(NC(=O)Cc2ccc3c(c2)C(O)C(=O)N3)c2ccc(C)o2)c(N2CCCCC2)c1` (centres unmarked) (as salt: sodium) [Cpd. 46, 2-(3-hydroxy-2-oxo-2,3-dihydro-1H-indol-5-yl)-N-{[4-methyl-2-(piperidin-1-yl)phenyl](5-methylfuran-2-yl)methyl}acetamide] had a melting point of 110 °C.
Same read-out and setting: the figure for `Cc1ccc(C(NC(=O)Cc2ccc3c(c2)CCC3O)c2ccc(C)o2)c(N2CCCCC2)c1` (centres unmarked) (as salt: sodium) [Cpd. 52, 2-(1-hydroxy-2,3-dihydro-1H-inden-5-yl)-N-{[4-methyl-2-(piperidin-1-yl)phenyl](5-methylfuran-2-yl)methyl}acetamide] is 97 °C; for `Cc1ccc(C(NC(=O)Cc2ccc3c(c2)C(O)CC3)c2ccc(C)o2)c(N2CCCCC2)c1` (centres unmarked) (as salt: sodium) [Cpd. 85, 2-(3-hydroxy-2,3-dihydro-1H-inden-5-yl)-N-{[4-methyl-2-(piperidin-1-yl)phenyl](5-methylfuran-2-yl)methyl}acetamide] it is 60 °C.
For `Cc1ccc(C(NC(=O)Cc2ccc3c(ccn3CC3CCOCC3)c2)c2ccc(C)o2)c(N2CCCCC2)c1` (centres unmarked) (as salt: sodium) [Cpd. 113, N-{[4-methyl-2-(piperidin-1-yl)phenyl](5-methylfuran-2-yl)methyl}-2-[1-(oxan-4-ylmethyl)-1H-indol-5-yl]acetamide], the melting point worked out at 67 °C.
The same measure, in the same setting: the figure for `Cc1ccc(C(NC(=O)C2(c3ccc4c(ccn4CCC(=O)O)c3)CC2)c2ccc(C)o2)c(N2CCCCC2)c1` (centres unmarked) (as salt: sodium) [Cpd. 154, 3-{5-[1-({[4-methyl-2-(piperidin-1-yl)phenyl](5-methylfuran-2-yl)methyl}carbamoyl)cyclopropyl]-1H-indol-1-yl}propanoic acid] is 90 °C.
In the case of `Cc1ccc(C(NC(=O)C2(c3ccc4c(c3)CCC4O)CC2)c2ccc(C)o2)c(C)c1` (centres unmarked) (as salt: sodium) [Cpd. 155, N-[(2,4-dimethylphenyl)(5-methylfuran-2-yl)methyl]-1-(1-hydroxy-2,3-dihydro-1H-inden-5-yl)cyclopropane-1-carboxamide], the melting point turned out to be 58 °C.
`Cc1ccc(C(NC(=O)Cc2ccc3c(c2)/C(=N/N)C(=O)N3)c2ccc(C)o2)c(N2CCCCC2)c1` (centres unmarked) (hydrate or solvate) [Cpd. 84, 2-[(3Z)-3-hydrazinylidene-2-oxo-2,3-dihydro-1H-indol-5-yl]-N-{[4-methyl-2-(piperidin-1-yl)phenyl](5-methylfuran-2-yl)methyl}acetamide] yielded a melting point of 130 °C.
A word on the IC50: it is the concentration that inhibits the measured activity by half. As to `COc1ccc(C(NC(=O)Cc2ccc3[nH]c(=O)cc(C)c3c2)c2ccccc2)c(N2CCCCC2)c1` (centres unmarked) [Cpd. 10, N-{[4-methoxy-2-(piperidin-1-yl)phenyl](phenyl)methyl}-2-(4-methyl-2-oxo-1,2-dihydroquinolin-6-yl)acetamide], the half-maximal inhibitory concentration (IC50) (at human RORγt; in data set [1]) was 1000 to 10000 nM throughout.
On to `Cc1ccc(C(NC(=O)Cc2ccc3c(c2)CS(=O)(=O)N3)c2ccc(C)o2)c(Br)c1` (centres unmarked) [Cpd. 28, N-[(2-bromo-4-methylphenyl)(5-methylfuran-2-yl)methyl]-2-(2,2-dioxo-1,3-dihydro-2,1-benzothiazol-5-yl)acetamide], for which the IC50 lay within 100 to 1000 nM on human RORγt and 1000 to 10000 nM in data set [1].
In the case of `Cc1ccc(C(NC(=O)Cc2ccc3c(c2)OCC(=O)N3)c2ccc(C)o2)c(Br)c1` (centres unmarked) [Cpd. 31, N-[(2-bromo-4-methylphenyl)(5-methylfuran-2-yl)methyl]-2-(3-oxo-3,4-dihydro-2H-1,4-benzoxazin-7-yl)acetamide], the figures for the 50% inhibitory concentration (IC50) (on human RORγt; in data set [1]) were 10 to 100 nM and 100 to 1000 nM, respectively.
For `Cc1ccc(C(NC(=O)Cc2ccc3c(c2)OCC(=O)N3)c2ccc(C)o2)c(C)c1` (centres unmarked) [Cpd. 33, N-[(2,4-dimethylphenyl)(5-methylfuran-2-yl)methyl]-2-(3-oxo-3,4-dihydro-2H-1,4-benzoxazin-7-yl)acetamide], the concentration for half-maximal inhibition (IC50) (on human RORγt; in data set [1]) was 100 to 1000 nM throughout.
With `Cc1ccc(C(NC(=O)Cc2ccc3c(c2)OCC(=O)N3)c2ccc(C)o2)c(N2CCCCC2)c1` (centres unmarked) [Cpd. 35, N-{[4-methyl-2-(piperidin-1-yl)phenyl](5-methylfuran-2-yl)methyl}-2-(3-oxo-3,4-dihydro-2H-1,4-benzoxazin-7-yl)acetamide], the IC50 at human RORγt was 10 to 100 nM; in data set [1], below 100 nM.
In the same order, the values of `Cc1ccc(C(NC(=O)Cc2ccc3c(c2)CCC(=O)N3)c2ccc(C)o2)c(Br)c1` (centres unmarked) [Cpd. 36, N-[(2-bromo-4-methylphenyl)(5-methylfuran-2-yl)methyl]-2-(2-oxo-1,2,3,4-tetrahydroquinolin-6-yl)acetamide] are 100 to 1000 nM and 100 to 1000 nM.
Take `Cc1ccc(C(NC(=O)Cc2ccc3c(c2)C(C)C(=O)N3)c2ccc(C)o2)c(N2CCCCC2)c1` (centres unmarked) [Cpd. 49, N-{[4-methyl-2-(piperidin-1-yl)phenyl](5-methylfuran-2-yl)methyl}-2-(3-methyl-2-oxo-2,3-dihydro-1H-indol-5-yl)acetamide]: the melting point came out at 102 °C. The concentration for half-maximal inhibition (IC50) at human RORγt is 10 to 100 nM.
Take `Cc1ccc(C(NC(=O)Cc2ccc3c(c2)/C(=N/N)C(=O)N3)c2ccc(C)o2)c(N2CCCCC2)c1` (centres unmarked) [Cpd. 84, 2-[(3Z)-3-hydrazinylidene-2-oxo-2,3-dihydro-1H-indol-5-yl]-N-{[4-methyl-2-(piperidin-1-yl)phenyl](5-methylfuran-2-yl)methyl}acetamide]: the IC50 in data set [1] is 100 to 1000 nM.
Consider `Cc1ccc(C(NC(=O)C2(c3ccc4c(c3)CCN4)CC2)c2ccc(C)o2)c(C)c1` (centres unmarked) [Cpd. 142, 1-(2,3-dihydro-1H-indol-5-yl)-N-[(2,4-dimethylphenyl)(5-methylfuran-2-yl)methyl]cyclopropane-1-carboxamide], for which the melting point is 57 °C. The IC50 on human RORγt was 10 to 100 nM.

For the origin of these results see patent publication US11052092B2, “N-{[2-(piperidin-1-yl)phenyl](phenyl)methyl}-2-(3-oxo-3,4-dihydro-2H-1,4-benzoxazin-7-yl)acetamide derivatives and related compounds as ROR-gamma modulators for treating autoimmune diseases” (Genfit, priority 2017, dated 2021).
